Series [1] in a line: Experimental pKa by potentiometric titration. As to conditions: value in parentheses, read-out: R^3 group pKa, experimental. The class given is physicochemical. An excerpt: Table 4 SAR Study of the R^3 Substituent: Aromatic Groups | column: R^3 group pKa^a
Series [2] is described as follows: Intrinsic clearance (Cli) in human liver microsomes. The note with it: human liver microsome. The format is in vitro ADME. An excerpt:
(§1) inhibition at top, C= EC50, D= slope, x= inhibitor concentration and y= % inhibition. […]
(§2) reach 100% of inhibition, B was fixed to 100 only when at least 50% of inhibition was reached.
Plasmodium falciparum late stage (IV-V) gametocyte high content imaging assay Plasmodium falciparum NF54-pfs16-LUC-GFP stage IV-V Gametocytes were produced as described previously.5 Compounds were solubilized in DMSO and serially diluted in three concentrations per log standard curves in DM SO. One µl of compound was subsequently diluted in 25µl of water (4% DMSO) and 5µl transferred into the base of 384 well PerkinElmer CellCarrier plates. Forty-five µl of stage IV-V gametocytes (10%P in 0.1%H) were added to the imaging plates which were in turn sealed with a gas permeable membrane and incubated at 37°C, 5% CO 2, 5% O2, 90% N2 and 60% humidity […]
Post incubation, 5µl of MitoTracker® Red CM -H2Xros (MTR) solution (0.66ug/ml) was added to all wells and the plates incubated for a further 16hours. The assay plates were then imaged and the number of viable gametocytes determined for test compounds plus 0.4%DMSO and 5µM Puromycin.
(0.4%DMSO) control values. Percent inhibition was plotted against log compound concentration using a 4 parameter log dose, non-linear regression analysis, with sigmoidal dose response (variable slope) curve fit using Prizm 4.0. IC50 values were obtained from this curve fit. The compound testing was performed in duplicate point within two separate experiments.
Plasmodium berghei ookinete development assay
Assay was performed as previously reported.6 Briefly blood containing P. berghei CTRPp-GFP gametocytes was rapidly harvested from infected mice and introduced to test compounds pre-diluted in ookinete medium (to induce gamete formation and support ookinete development) in 96-well plates. Plates were incubated in the dark at 21°C for 22 hr before GFP fluorescence intensity measured in a plate reader. % inhibition of ookinete formation was calculated with reference to the fluorescence intensity values of a positive control (20 µM cycloheximide) and a solvent-only negative control (DMSO). All assays were performed in triplicate independent experiments and EC50 values calculated in Graphpad Prism.
The aqueous solubility of the test compounds was measured using laser nephelometry, as described previously.7 Compounds were subject to serial dilution from 10 mg/mL to 0.5 mg/mL in DMSO. An aliquot was then mixed with MilliQ water to obtain an aqueous dilution plate with a final concentration range of 100 – 5 μg/mL, with a final DMSO concentration of 1.0%. Triplicate aliquots were transferred to a flat bottomed polystyrene plate which was immediately read on the NEPHELOstar (BMG Lab Technologies). The amount of laser scatter caused by insoluble particulates (relative nephelometry units, RNU) was plotted against compound concentration using a segmental regression fit, with the point of inflection being quoted as the compounds aqueous solubility (μg/mL; […]
Intrinsic Clearance (Cli) experiments
The procedure was carried out as reported previously.7 Test compound (0.5 µM) was incubated with female CD1 mouse, male sprague-dawley rat or pooled human mixed gender liver microsomes (Xenotech LLC TM; 0.5 mg/mL 50 mM potassium phosphate buffer, pH 7.4) and the reaction initiated […]
by the addition of excess NADPH (8 mg/mL 50 mM potassium phosphate buffer, pH 7.4). […]
On the technique in general: Liver microsomes are vesicles of endoplasmic reticulum, rich in cytochrome P450 enzymes.

The nature of series [3]: Kinetic aqueous solubility (laser nephelometry). The class given is physicochemical. The note with it: MilliQ water with 1.0% DMSO, aqueous with cosolvent or surfactant or cyclodextrin, kinetic from dmso stock.
Source text: as §1, §2
Plasmodium falciparum late stage (IV-V) gametocyte high content imaging assay Plasmodium falciparum NF54-pfs16-LUC-GFP stage IV-V Gametocytes were produced as described previously.5 Compounds were solubilized in DMSO and serially diluted in three concentrations per log standard curves in DM SO. One µl of compound was subsequently diluted in 25µl of water (4% DMSO) and 5µl transferred into the base of 384 well PerkinElmer CellCarrier plates. […]
Post incubation, 5µl of MitoTracker® Red CM -H2Xros (MTR) solution (0.66ug/ml) was added to all wells and the plates incubated for a further 16hours. The assay plates were then imaged and the number of viable gametocytes determined for test compounds plus 0.4%DMSO and 5µM Puromycin. […]
Assay was performed as previously reported.6 Briefly blood containing P. berghei CTRPp-GFP gametocytes was rapidly harvested from infected mice and introduced to test compounds pre-diluted in ookinete medium (to induce gamete formation and support ookinete development) in 96-well plates. […] All assays were performed in triplicate independent experiments and EC50 values calculated in Graphpad Prism. […]

A further series has as its system P. berghei ANKA strain. Put plainly: In vivo antimalarial efficacy in the P. berghei mouse model (Peter's test). Set-up: species or system Plasmodium berghei in female NMRI mice. The note with it: 4 × 30 mg/kg oral, once daily; mice cured / mice in group; 30 mg/kg. Here is the method:
Compound 41 was dosed as a bolus solution intravenously at 1 mg free base/kg (dose volume: 5 mL/kg; dose vehicle: 5% DMSO;saline) or by gavage orally as solution at 3 mg free base/kg (dose volume: 10 mL/kg; Dose vehicle: 0.5% w/v hydroxypropylmethylcellulose with 0.4% v/v Tween 80 and 0.5% v/v benzyl alcohol) to male Sprague Dawley rats (n=3/dose route). Blood samples were taken from each rat at 5, 15, 30 min, 1, 2, 4, 6, 8, 24 and 30 h post-dose, mixed with two volumes of distilled water and stored frozen until UPLC/MS/MS analysis.
Pharmacokinetic parameters were derived from the blood concentration time curve for each compound using PKsolutions software v 2.0 (Summit Research Services, USA).
In vivo antimalarial efficacy studies in P. berghei. (Swiss TPH)
In vivo efficacy was conducted as previously described10 with the modification that female NMRI mice (n = 3) were infected with a GFP-transfected P. berghei ANKA strain (donated by A. P. Waters and C. J. Janse, Leiden University, The Netherlands), and parasitaemia determined (96 h after infection) using standard flow cytometry techniques. Compounds 1, 25, 27, 30 and 49 were prepared in 10% DM SO, 40% PEG 400 and 50% water prior to administration orally, once daily for 4 days.
Compounds 40, 41, 43 and 44 were prepared in a non-solubilizing, standard suspension vehicle called HPMC (0.5% [wt/vol] hydroxypropylmethylcellulose, 0.5% [vol/vol] benzyl alcohol, 0.4% [vol/vol] Tween 80, and 0.9% [wt/vol] sodium chloride in water) prior to administration orally, once daily for 4 days. Blood samples were collected on day 4 (96 h after infection) in two volumes water. Animals […]
and then hourly up to 4 h after dosing each day. The animals were selected randomly for each group

In another series the test system is Pf (3D7). Description: Ligand efficiency metrics (LE, LLE, LELP), selectivity and fold changes. Set-up: species or system Plasmodium falciparum.
Series [4] can be described thus: Oral maximum tolerated dose. The note with it: in vivo, 300 mg/kg.
Series [5] is described as follows: Parallel artificial membrane permeability assay (PAMPA). The format is in vitro ADME. As to conditions: relative to the earlier lead.
The nature of series [6]: Intrinsic clearance in rat hepatocytes. The format is in vitro ADME.
Series [7] can be described thus: Rat hepatic portal vein study. The class given is in vivo.

5 compounds from article PMC5108032, “Discovery of a Quinoline-4-carboxamide Derivative with a Novel Mechanism of Action, Multistage Antimalarial Activity, and Potent in Vivo Efficacy” (Journal of Medicinal Chemistry, 2016) can be followed below.

The structures appear in SMILES notation. Converted amounts (≈) assume the structure as drawn. “And” between values parts separate entries of the source, which are not always exact repeats. Equal values may be shown once.

By pKa is commonly meant the pH at which an ionisable group is half protonated. Consider `O=C(NCCN1CCCC1)c1cc(-c2ccc(CN3CCOCC3)cc2Cl)nc2ccc(F)cc12` [Compound 42, 2-(2-Chloro-4-(morpholinomethyl)phenyl)-6-fluoro-N-(2-(pyrrolidin-1-yl)ethyl)quinoline-4-carboxamide], for which, in series [1], the pKa was determined as 6.3.
What is called solubility (kinetic) is the concentration staying in solution when a stock, usually in DMSO, is diluted into the medium. Regarding `O=C(NCCN1CCCC1)c1cc(NCCCCN2CCOCC2)nc2ccc(Cl)cc12` [Compound 27, 6-Chloro-2-((4-morpholinobutyl)amino)-N-(2-(pyrrolidin-1-yl)ethyl)quinoline-4-carboxamide], the “HLM Cli” value in series [2] was less than 1 mL min^–1 g^–1. This compound also came in with a solubility (kinetic) in series [3] of 220 µM (≈ 101 µg/mL). For the same compound, the cure result in the series with P. berghei ANKA strain was “one out of three and 1/3”. The “LLE (ligand-lipophilicity efficiency)” value in the series with Pf (3D7) is 6.2. Further, the “improvement / increase in potency” value with Pf (3D7) (Pf (3D7), relative to the comparator compound of the sentence) is recorded as 17 fold.
Turning to `O=C(NCCN1CCCC1)c1cc(-c2ccc(CN3CCOCC3)cc2F)nc2ccc(F)cc12` [Compound 41], the “HLM Cli” value in [2] stood at 1.5 mL min^–1 g^–1. Besides, the pKa in series [1] was 6.3.
By MTD is commonly meant the largest dose that counted as tolerated. Low values mean a narrow tolerated range, high ones a wide tolerated range. As for `O=C(NCCN1CCCC1)c1cc(NCCCN2CCOCC2)nc2ccc(F)cc12` [Compound 25, 6-Fluoro-2-((3-morpholinopropyl)amino)-N-(2-(pyrrolidin-1-yl)ethyl)quinoline-4-carboxamide], in [2], the “HLM Cli” value is given as less than 0.5 mL min^–1 g^–1. In addition, the “LLE (ligand-lipophilicity efficiency)” value in the series with Pf (3D7) amounted to 5.4. In addition, the MTD at 4 days in series [4] is more than 300 mg/kg.
Take `O=C(NCCN1CCCC1)c1cc(NCCC2CCOCC2)nc2ccc(Cl)cc12` [Compound 30, 6-Chloro-N-(2-(pyrrolidin-1-yl)ethyl)-2-((2-(tetrahydro-2H-pyran-4-yl)ethyl)amino)quinoline-4-carboxamide]: the “HLM Cli” value in series [2] is listed as 1 mL min^–1 g^–1. Besides, the increase in permeability entry in [5] is on record as “more than 20 fold”. Besides, the “intrinsic clearance in rat hepatocytes (Cli)” value in series [6] was 3 mL min^–1 g^–1. This compound yielded a hepatic extraction in [7] of 76%.
